Data on 1 compound can be found in publication PMC5241874.

In the assay the target is T1, αγ heterodimer of human NAD-IDH (IDH3) (Homo sapiens, UniProt P50213+P51553).
T1 construct: gene IDH3A; alpha and gamma co-expressed in E. coli BL21(DE3) from pQlinkN; gamma C-terminal TEV-His6, His6 cleaved by TEV; 80 kDa heterodimer (dimer of heterodimers at high concentration)
T1 sequence (P50213 28-366): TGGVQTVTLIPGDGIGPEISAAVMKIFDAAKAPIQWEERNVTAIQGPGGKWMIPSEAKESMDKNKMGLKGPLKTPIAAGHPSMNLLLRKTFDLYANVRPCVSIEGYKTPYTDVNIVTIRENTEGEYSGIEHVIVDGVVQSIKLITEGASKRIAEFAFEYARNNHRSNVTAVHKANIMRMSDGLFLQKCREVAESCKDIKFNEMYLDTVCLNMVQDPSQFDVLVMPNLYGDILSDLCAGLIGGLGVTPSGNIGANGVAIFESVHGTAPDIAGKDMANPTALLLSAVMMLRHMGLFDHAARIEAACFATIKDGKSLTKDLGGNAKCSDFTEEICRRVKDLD
T1 sequence (P51553 40-393): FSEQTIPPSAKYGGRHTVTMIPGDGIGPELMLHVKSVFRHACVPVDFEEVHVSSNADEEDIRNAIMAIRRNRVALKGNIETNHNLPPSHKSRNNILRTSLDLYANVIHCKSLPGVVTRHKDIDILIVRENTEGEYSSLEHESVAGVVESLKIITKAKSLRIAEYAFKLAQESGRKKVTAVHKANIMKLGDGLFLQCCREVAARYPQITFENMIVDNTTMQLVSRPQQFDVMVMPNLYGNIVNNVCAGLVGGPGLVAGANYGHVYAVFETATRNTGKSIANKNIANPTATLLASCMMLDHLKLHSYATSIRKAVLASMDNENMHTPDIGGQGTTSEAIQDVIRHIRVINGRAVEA
Description: crystal structure, […] Å. In kind it is binding. The settings on record: allosteric citrate subsite in gamma subunit (second site), with Mg2+ and ADP; pH 7.5.

Regarding `O=C(O)C[C@H](C(=O)O)[C@@H](O)C(=O)O` [ICT], the “crystal structure, 2.8 Å” value is listed as “In this structure, ICT binds to the CIT-binding subsite with a similar orientation as CIT”.
